ChEMBL document CHEMBL5385860, “Antiproliferative, antiangiogenic and apoptotic effect of new hybrids of quinazoline-4(3H)-ones and sulfachloropyridazine” (Eur J Med Chem, 2023)
pIC50: −log10 of the molar value.

Tests used:
EKVX = test: Cytotoxicity against human EKVX cells assessed as growth inhibition at 10 uM relative to control; assay type: functional; settings: read-out: GI
NCI-H322M = test: Cytotoxicity against human NCI-H322M cells assessed as growth inhibition at 10 uM relative to control; assay type: functional; settings: read-out: GI
HOP-62 = test: Cytotoxicity against human HOP-62 cells assessed as growth inhibition at 10 uM relative to control; assay type: functional; settings: read-out: GI
UO-31 [1] = test: Cytotoxicity against human UO-31 cells assessed as growth inhibition at 10 uM relative to control; assay type: functional; settings: read-out: GI
IGROV-1 = test: Cytotoxicity against human IGROV-1 cells assessed as growth inhibition at 10 uM relative to control; assay type: functional; settings: read-out: GI
SNB-75 = test: Cytotoxicity against human SNB-75 cells assessed as growth inhibition at 10 uM relative to control; assay type: functional; settings: read-out: GI
CAKI-1 = test: Cytotoxicity against human CAKI-1 cells assessed as growth inhibition at 10 uM relative to control; assay type: functional; settings: read-out: GI
SK-OV-3 = test: Cytotoxicity against human SK-OV-3 cells assessed as growth inhibition at 10 uM relative to control; assay type: functional; settings: read-out: GI
BT-549 = test: Cytotoxicity against human BT-549 cells assessed as growth inhibition at 10 uM relative to control; assay type: functional; settings: read-out: GI
U-251 = test: Cytotoxicity against human U-251 cells assessed as growth inhibition at 10 uM relative to control; assay type: functional; settings: read-out: GI
NCI-H522 = test: Cytotoxicity against human NCI-H522 cells assessed as growth inhibition at 10 uM relative to control; assay type: functional; settings: read-out: GI
MDA-MB-231 = test: Cytotoxicity against human MDA-MB-231 cells assessed as growth inhibition at 10 uM relative to control; assay type: functional; settings: read-out: GI
UACC-62 = test: Cytotoxicity against human UACC-62 cells assessed as growth inhibition at 10 uM relative to control; assay type: functional; settings: read-out: GI
HOP-92 = test: Cytotoxicity against human HOP-92 cells assessed as growth inhibition at 10 uM relative to control; assay type: functional; settings: read-out: GI
UO-31 [2] = test: cells; settings: Homo sapiens, UO-31, 24 h
NCI-H226 = test: Cytotoxicity against human NCI-H226 cells assessed as growth inhibition at 10 uM relative to control; assay type: functional; settings: read-out: GI
LOX IMVI = test: Cytotoxicity against human LOX IMVI cells assessed as growth inhibition at 10 uM relative to control; assay type: functional; settings: read-out: GI
MCF7 = test: Cytotoxicity against human MCF7 cells assessed as growth inhibition at 10 uM relative to control; assay type: functional; settings: read-out: GI
Hs-578T = test: Cytotoxicity against human Hs-578T cells assessed as growth inhibition at 10 uM relative to control; assay type: functional; settings: read-out: GI
K562 = test: Cytotoxicity against human K562 cells assessed as growth inhibition at 10 uM relative to control; assay type: functional; settings: read-out: GI
PC-3 = test: Cytotoxicity against human PC-3 cells assessed as growth inhibition at 10 uM relative to control; assay type: functional; settings: read-out: GI
A498 = test: Cytotoxicity against human A498 cells assessed as growth inhibition at 10 uM relative to control; assay type: functional; settings: read-out: GI
M14 [3] = test: cells; settings: Homo sapiens, M14, 24 h
MOLT-4 = test: Cytotoxicity against human MOLT-4 cells assessed as growth inhibition at 10 uM relative to control; assay type: functional; settings: read-out: GI
M14 [4] = test: cells; settings: Homo sapiens, M14, light or radiation study
T47D = test: Cytotoxicity against human T47D cells assessed as growth inhibition at 10 uM relative to control; assay type: functional; settings: read-out: GI
SF-268 = test: Cytotoxicity against human SF-268 cells assessed as growth inhibition at 10 uM relative to control; assay type: functional; settings: read-out: GI
MDA-MB-468 = test: Cytotoxicity against human MDA-MB-468 cells assessed as growth inhibition at 10 uM relative to control; assay type: functional; settings: read-out: GI
CCRF-CEM = test: Cytotoxicity against human CCRF-CEM cells assessed as growth inhibition at 10 uM relative to control; assay type: functional; settings: read-out: GI
RPMI-8226 = test: Cytotoxicity against human RPMI-8226 cells assessed as growth inhibition at 10 uM relative to control; assay type: functional; settings: read-out: GI
786-0 = test: Cytotoxicity against human 786-0 cells assessed as growth inhibition at 10 uM relative to control; assay type: functional; settings: read-out: GI
M14 [5] = test: Cytotoxicity against human M14 cells assessed as growth inhibition at 10 uM relative to control; assay type: functional; settings: read-out: GI
HCT-116 [6] = test: Cytotoxicity against human HCT-116 cells assessed as growth inhibition at 10 uM relative to control; assay type: functional; settings: read-out: GI
HCT-116 [7] = test: cells; settings: Homo sapiens, HCT-116, 24 h
SF-539 = test: Cytotoxicity against human SF-539 cells assessed as growth inhibition at 10 uM relative to control; assay type: functional; settings: read-out: GI
SW-620 = test: Cytotoxicity against human SW-620 cells assessed as growth inhibition at 10 uM relative to control; assay type: functional; settings: read-out: GI
UACC-257 = test: Cytotoxicity against human UACC-257 cells assessed as growth inhibition at 10 uM relative to control; assay type: functional; settings: read-out: GI
ACHN = test: Cytotoxicity against human ACHN cells assessed as growth inhibition at 10 uM relative to control; assay type: functional; settings: read-out: GI
NCI/ADR-RES = test: Cytotoxicity against human NCI/ADR-RES cells assessed as growth inhibition at 10 uM relative to control; assay type: functional; settings: read-out: GI
NCI-H23 = test: Cytotoxicity against human NCI-H23 cells assessed as growth inhibition at 10 uM relative to control; assay type: functional; settings: read-out: GI
[8] = target: Vascular endothelial growth factor receptor 2 (Homo sapiens, UniProt P35968); test: Inhibition of recombinant VEGFR2 (unknown origin) by kinase glo detection reagent based assay
Chain of Vascular endothelial growth factor receptor 2 (P35968 whole entry): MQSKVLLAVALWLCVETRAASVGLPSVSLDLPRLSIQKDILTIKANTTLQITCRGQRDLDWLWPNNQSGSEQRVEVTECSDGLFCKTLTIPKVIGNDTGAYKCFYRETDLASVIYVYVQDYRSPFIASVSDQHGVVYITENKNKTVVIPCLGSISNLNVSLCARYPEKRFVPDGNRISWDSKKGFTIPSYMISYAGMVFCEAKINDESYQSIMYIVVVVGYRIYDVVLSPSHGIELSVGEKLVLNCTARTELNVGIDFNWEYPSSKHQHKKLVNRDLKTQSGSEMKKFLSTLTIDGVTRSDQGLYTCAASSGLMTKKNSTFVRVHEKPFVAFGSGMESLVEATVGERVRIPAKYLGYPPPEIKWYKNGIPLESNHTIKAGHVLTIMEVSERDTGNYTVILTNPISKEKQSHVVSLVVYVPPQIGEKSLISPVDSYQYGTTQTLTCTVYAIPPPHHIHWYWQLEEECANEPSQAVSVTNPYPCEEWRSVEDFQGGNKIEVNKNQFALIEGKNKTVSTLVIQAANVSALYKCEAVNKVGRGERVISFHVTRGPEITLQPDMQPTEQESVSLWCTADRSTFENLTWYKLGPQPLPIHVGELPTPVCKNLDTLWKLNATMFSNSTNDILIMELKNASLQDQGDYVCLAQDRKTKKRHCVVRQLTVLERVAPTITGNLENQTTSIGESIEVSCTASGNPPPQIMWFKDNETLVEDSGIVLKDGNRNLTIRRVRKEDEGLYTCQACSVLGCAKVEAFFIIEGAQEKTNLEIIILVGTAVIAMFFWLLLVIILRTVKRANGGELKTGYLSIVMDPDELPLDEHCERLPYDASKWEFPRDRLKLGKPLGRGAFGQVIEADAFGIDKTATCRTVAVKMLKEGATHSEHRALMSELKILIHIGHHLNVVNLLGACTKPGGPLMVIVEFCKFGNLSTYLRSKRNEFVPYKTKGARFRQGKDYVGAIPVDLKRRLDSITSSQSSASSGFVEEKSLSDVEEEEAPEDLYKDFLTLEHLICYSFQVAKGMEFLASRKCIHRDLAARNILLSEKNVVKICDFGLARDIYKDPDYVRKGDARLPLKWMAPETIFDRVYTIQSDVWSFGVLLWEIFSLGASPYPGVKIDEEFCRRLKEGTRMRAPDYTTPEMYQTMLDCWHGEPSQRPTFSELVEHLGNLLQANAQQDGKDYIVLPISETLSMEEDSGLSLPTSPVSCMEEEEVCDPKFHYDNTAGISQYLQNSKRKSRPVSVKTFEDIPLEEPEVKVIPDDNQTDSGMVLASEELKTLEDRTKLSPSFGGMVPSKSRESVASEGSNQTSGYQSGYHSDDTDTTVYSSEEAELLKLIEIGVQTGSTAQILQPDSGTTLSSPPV

HUVEC = test: Cytotoxicity against HUVEC cells assessed as effect on cell morphology at 10 ug/ml measured after 72 hrs; assay type: toxicity, cell-based; settings: human, dose 10 µg/ml
UO-31 [9] = test: Induction of apoptosis in human UO-31 cells assessed as increase in caspase-3 level by measuring optical density by Western blot densitometry analysis (reference value: 0.095); assay type: functional

SMILES: CCCCn1c(SCC(=O)Nc2ccc(S(=O)(=O)Nc3ccc(Cl)nn3)cc2)nc2ccccc2c1=O
- inhibition of growth at 10 µM (EKVX): 11%
- inhibition of growth at 10 µM (NCI-H322M): 12%
- inhibition of growth at 10 µM (HOP-62): 14%
- inhibition of growth at 10 µM (UO-31 [1]): 29%
- inhibition of growth at 10 µM (IGROV-1): 15%
- inhibition of growth at 10 µM (SNB-75): 23%
- inhibition of growth at 10 µM (CAKI-1): 18%
- inhibition of growth at 10 µM (SK-OV-3): 16%
- inhibition of growth at 10 µM (BT-549): 14%
- inhibition of growth at 10 µM (U-251): 10%
- inhibition of growth at 10 µM (NCI-H522): 13%
- inhibition of growth at 10 µM (MDA-MB-231): 10%
- inhibition of growth at 10 µM (UACC-62): 14%
- inhibition of growth at 10 µM (HOP-92): 32%
- pIC50 (UO-31 [2]): 4.83
- inhibition of growth at 10 µM (NCI-H226): 10%

SMILES: O=c1c2cc3ccccc3cc2[nH]c(=S)n1-c1ccc(S(=O)(=O)Nc2ccc(Cl)nn2)cc1
- inhibition of growth at 10 µM (UO-31 [1]): 18%
- inhibition of growth at 10 µM (CAKI-1): 10%
- inhibition of growth at 10 µM (NCI-H522): 10%
- inhibition of growth at 10 µM (LOX IMVI): 12%
- inhibition of growth at 10 µM (MCF7): 11%

SMILES: O=C(CSc1nc2ccccc2c(=O)n1-c1ccc(S(=O)(=O)Nc2ccc(Cl)nn2)cc1)Nc1ccccc1
- inhibition of growth at 10 µM (Hs-578T): 27%
- inhibition of growth at 10 µM (UO-31 [1]): 13%
- inhibition of growth at 10 µM (IGROV-1): 13%
- inhibition of growth at 10 µM (SNB-75): 11%
- inhibition of growth at 10 µM (CAKI-1): 12%
- inhibition of growth at 10 µM (K562): 12%
- inhibition of growth at 10 µM (PC-3): 14%
- inhibition of growth at 10 µM (A498): 15%
- inhibition of growth at 10 µM (BT-549): 13%
- inhibition of growth at 10 µM (U-251): 22%
- pIC50 (M14 [3]): 5.35
- inhibition of growth at 10 µM (NCI-H522): 10%
- inhibition of growth at 10 µM (MOLT-4): 18%
- pIC50 (M14 [4]): 5.32
- inhibition of growth at 10 µM (LOX IMVI): 18%
- inhibition of growth at 10 µM (T47D): 18%
- inhibition of growth at 10 µM (SF-268): 10%
- inhibition of growth at 10 µM (MDA-MB-468): 15%
- inhibition of growth at 10 µM (UACC-62): 35%
- inhibition of growth at 10 µM (MCF7): 17%
- inhibition of growth at 10 µM (CCRF-CEM): 11%
- inhibition of growth at 10 µM (RPMI-8226): 11%

SMILES: O=c1c2cc(Cl)cc(Cl)c2[nH]c(=S)n1-c1ccc(S(=O)(=O)Nc2ccc(Cl)nn2)cc1
- inhibition of growth at 10 µM (UO-31 [1]): 19%
- inhibition of growth at 10 µM (CAKI-1): 11%
- inhibition of growth at 10 µM (A498): 12%
- inhibition of growth at 10 µM (786-0): 21%
- pIC50 (M14 [3]): 4.39
- inhibition of growth at 10 µM (NCI-H522): 10%
- inhibition of growth at 10 µM (M14 [5]): 78%
- inhibition of growth at 10 µM (HCT-116 [6]): 48%
- pIC50 (HCT-116 [7]): 4.70

SMILES: O=C(CSc1nc2ccccc2c(=O)n1-c1ccc(Cl)c(Cl)c1)Nc1ccc(S(=O)(=O)Nc2ccc(Cl)nn2)cc1
- inhibition of growth at 10 µM (HOP-62): 12%
- inhibition of growth at 10 µM (UO-31 [1]): 20%
- inhibition of growth at 10 µM (SNB-75): 31%
- inhibition of growth at 10 µM (CAKI-1): 18%
- inhibition of growth at 10 µM (SK-OV-3): 11%
- inhibition of growth at 10 µM (NCI-H522): 10%
- inhibition of growth at 10 µM (M14 [5]): 14%
- inhibition of growth at 10 µM (SF-539): 10%
- inhibition of growth at 10 µM (T47D): 14%
- inhibition of growth at 10 µM (SW-620): 10%
- inhibition of growth at 10 µM (UACC-62): 15%
- inhibition of growth at 10 µM (HOP-92): 28%

SMILES: NS(=O)(=O)c1ccc(NC(=O)CSc2nc3ccccc3c(=O)n2-c2ccc(S(=O)(=O)Nc3ccc(Cl)nn3)cc2)cc1
- inhibition of growth at 10 µM (Hs-578T): 13%
- inhibition of growth at 10 µM (UO-31 [1]): 10%
- inhibition of growth at 10 µM (SNB-75): 27%
- inhibition of growth at 10 µM (CAKI-1): 12%
- inhibition of growth at 10 µM (UACC-62): 14%

SMILES: COc1cc2[nH]c(=S)n(-c3ccc(S(=O)(=O)Nc4ccc(Cl)nn4)cc3)c(=O)c2cc1OC
- inhibition of growth at 10 µM (UO-31 [1]): 16%
- inhibition of growth at 10 µM (SNB-75): 10%
- inhibition of growth at 10 µM (CAKI-1): 10%
- inhibition of growth at 10 µM (HCT-116 [6]): 11%

SMILES: NS(=O)(=O)c1ccc(-n2c(SCC(=O)Nc3ccc(S(=O)(=O)Nc4ccc(Cl)nn4)cc3)nc3ccccc3c2=O)cc1
- inhibition of growth at 10 µM (UACC-257): 10%
- inhibition of growth at 10 µM (UO-31 [1]): 17%
- inhibition of growth at 10 µM (ACHN): 10%
- inhibition of growth at 10 µM (SF-539): 11%
- inhibition of growth at 10 µM (HOP-92): 24%
- inhibition of growth at 10 µM (CCRF-CEM): 10%
- inhibition of growth at 10 µM (NCI/ADR-RES): 11%
- inhibition of growth at 10 µM (NCI-H23): 14%

SMILES: O=C(CSc1nc2ccccc2c(=O)n1CCc1ccccc1)Nc1ccc(S(=O)(=O)Nc2ccc(Cl)nn2)cc1
- pIC50 [8]: 7.18
- Activity (HUVEC): Non-Toxic
- OD (UO-31 [9]): 0.772

SMILES: O=c1c2cccc(Br)c2[nH]c(=S)n1-c1ccc(S(=O)(=O)Nc2ccc(Cl)nn2)cc1
- inhibition of growth at 10 µM (UO-31 [1]): 20%
- inhibition of growth at 10 µM (SNB-75): 11%
- inhibition of growth at 10 µM (CAKI-1): 13%
- inhibition of growth at 10 µM (NCI-H522): 12%
